Columns and labels:
algae = test: Dosing of micro-mixed emulsion to cooling tower water, control of algae; details: isothiazolone 3 ppm in cooling water of a cooling tower; surfactant-free emulsion from micro-mixer
Protocol: A 50 wt. % solution of 4,5-dichloro-2-octyl-3-isothiazolone in benzyl alcohol is fed to an array of slit shaped interdigital micro-mixers at a feed rate of 50 mL/minute, combined with water fed to the micro-mixer at a feed rate of 600 mL/minute. The water contains no surfactants. The resulting emulsion exiting the micro-mixer it is directly dosed to cooling water in a 50,000 gallon […] cooling tower, where is effectively distributed and re-circulated throughout the cooling water. After about 20 minutes, the isothiazolone concentration in the cooling water reaches a desired concentration of 3 ppm and the emulsion feed is stopped. […] Focusing micro-mixers also produce similar results as compared to the micro-mixers described above. Melted 2-octyl-3-isothiazolone as a neat liquid is fed to an array of slit shaped interdigital micro-mixers at a feed rate of 50 mL/minute, combined with water fed to the micro-mixer at a feed rate of 600 mL/minute. The water contains no surfactants and solvents. The resulting emulsion exiting the micro-mixer it is directly dosed to cooling water in a 50,000 gallon […] cooling tower, where is effectively distributed and re-circulated throughout the cooling water. After about 20 minutes, the isothiazolone concentration in the cooling water reaches a desired concentration of 3 ppm and the emulsion feed is stopped. […]

mold = test: Dosing of micro-mixed emulsion to paper pulp slurry tank, mold proofing of paper; details: 50 wt. % solution in benzyl alcohol micro-mixed with water, charged to 10,000 liter pulp slurry tank
Protocol: A 10,000 liter pulp slurry tank has a continuous throughput averaging 6,600 liters/minute. A 50 wt. % solution of 4,5-dichloro-2-octyl-3-isothiazolone in benzyl alcohol is fed to an array of slit shaped interdigital micro-mixers at a feed rate of 56 mL/minute, combined with water fed to the micro-mixer at a feed rate of 600 mL/minute. The water contains no surfactants. The resulting emulsion exiting the micro-mixer is directly charged to water in the pulp slurry tank, where it is effectively distributed and re-circulated throughout the tank water. […] Focusing micro-mixers also produce similar results as compared to the micro-mixers described above.

Compound	control of algae in cooling water (algae)	mold proofing in paper prepared from treated pulp (mold)
CCCCCCCCn1sccc1=O [2-octyl-3-isothiazolone]	Effective control of algae	
CCCCCCCCn1sc(Cl)c(Cl)c1=O [4,5-dichloro-2-octyl-3-isothiazolone]	Effective control of algae	effective mold proofing
